Assay results taken from publication PMC6100288 (Molecules : A Journal of Synthetic Chemistry and Natural …, 2018).

What was measured:
recombinant human PTP1B [1] = target: T1, recombinant human PTP1B (Homo sapiens, UniProt P18031); assay: High-resolution PTP1B inhibition profiling (biochromatogram of HPLC microfractions); assay type: biochemical; conditions: HPLC microfractions of crude ethyl acetate extract, Figure 1; result in words
T1 construct: purchased Enzo Life Sciences Inc. BML-SE332-0050
T1 sequence (P18031 1-322 limits assumed): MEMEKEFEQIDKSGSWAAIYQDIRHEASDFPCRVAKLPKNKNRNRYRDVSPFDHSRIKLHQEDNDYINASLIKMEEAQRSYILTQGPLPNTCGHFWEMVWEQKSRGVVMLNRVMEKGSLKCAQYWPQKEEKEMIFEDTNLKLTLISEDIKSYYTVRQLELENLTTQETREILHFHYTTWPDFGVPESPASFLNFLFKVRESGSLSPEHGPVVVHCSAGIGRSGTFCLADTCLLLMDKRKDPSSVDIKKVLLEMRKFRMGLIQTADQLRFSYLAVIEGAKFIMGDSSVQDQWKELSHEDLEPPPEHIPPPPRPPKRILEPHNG
Method: PTP1B inhibition assaying of the defatted extract, fraction F1 (from preparative HPLC: see Section 3.5) and microfractions (obtained as described below in Section 3.4) were performed according to the microplate-based method previously described. In brief, all solutions were prepared in a buffer of 50 mM Tris and 50 mM Bis-Tris containing 100 mM NaCL and adjusted to pH 7. To each well containing microfractions or dilution series of pure compounds were added 18 µL of DMSO and 52 µL of 3.4 mM EDTA in Bis-Tris buffer (to give final well concentrations of 10% DMSO and 1 mM EDTA) as well as 60 µL of a Bis-Tris buffer solution containing 1.5 mM pNPP and 6 mM DTT in phosphate buffer (to give final well concentrations of 0.5 mM pNPP and 2 mM DTT). The microplate was incubated for 10 min at 25 °C, and the reaction was started by addition of 0.001 μg/μL PTP1B stock solution (50 μL) in phosphate buffer (to give a final concentration of 0.05 µg PTP1B per well). The reaction was monitored at 405 nm every 30 s for 10 min to yield the enzyme activity (expressed as cleavage rate AU/s) by using a Thermo Scientific Multiskan FC microplate photometer (Thermo Scientific, Waltham, MA, USA). For each microplate, blank samples (negative controls) containing buffer, enzyme, EDTA, DTT, and pNPP were measured in triplicate, and for the dilution series, RK682 was included as a reference inhibitory compound (i.e., positive control). The percentage inhibition of PTP1B was calculated according to the following equation: % inhibition=(1−SLOPEsample/SLOPEblank)×100
(§1) The high-resolution PTP1B biochromatograms (high-resolution PTP1B inhibition profiles) were constructed by plotting the inhibition values against the chromatographic retention time. Dose-response curves and IC50 values for dilution series of the crude extract and pure compounds were obtained using GraFit software, version 5.0.11 (Erithacus Software Limited, West Sussex, UK). For PTP1B IC50 values, the crude extract and isolated compounds were assessed by using the standard assay conditions described above. Nine dilutions were assessed in triplicates and percentage inhibition calculated as mean ± standard deviation in Microsoft Excel according to the above equation. The results were imported and used for assessing dose-response curves and IC50 values in GraFit software, version 5.0.11 (Erithacus Software Limited). Data were fitted to the equation f(x)=min+max−min/1+(x/IC50)^slope where min is the background, max–min is the y-range, x is the concentration, and slope is the Hill slope. Results are reported as IC50 values ± standard error.
Microfractionation of the extract of M. albicans for high-resolution PTP1B inhibition profiling was conducted using an Agilent 1200 system (Santa Clara, CA, USA—HPLC system 1) comprising a G1311A quaternary pump, a G1322A degasser, a G1316A thermostatted column compartment, a G1315C photodiode array detector, a G1367C high-performance autosampler, and a G1364C fraction collector, controlled by Agilent ChemStation version B.03.02 software. Separations were performed by using a reversed-phase Phenomenex Luna C18(2) column (150 mm × 4.6 mm i.d., 3 μm particle size, 100 Å pore size) (Phenomenex, Torrance, CA, USA). A binary elution system of water: acetonitrile (95:5, solvent A) and acetonitrile: water (95:5, solvent B), both acidified with 0.1% formic acid, was used with a flow rate of 0.8 mL/min. […]

recombinant human PTP1B [2] = target: T1, recombinant human PTP1B; assay: Microplate-based PTP1B inhibition assay (pNPP substrate); assay type: biochemical; conditions: n = 3; IC50 ± standard error; pH 7, 25 °C, 0.5 mM pNPP
Source text: p-Nitrophenyl phosphate (pNPP), dimethyl sulfoxide (DMSO), sodium phosphate monobasic dihydrate, sodium phosphate dibasic, sodium hydroxide, sodium azide, tris-(hydroxymethyl)-aminomethane (Tris), bis-(2-hydroxyethyl)-imino-tris-(hydroxymethylmethane) (Bis-Tris), N,N,N′,N′-ethylenediaminetetraacetate (EDTA), dithiothreitol (DTT), methanol-d4, and HPLC grade acetonitrile were purchased from Sigma-Aldrich (St. Louis, MO, USA), recombinant human PTP1B (BML-SE332-0050, EC 3.1.3.48) was purchased from Enzo Life Sciences Inc. (Farmingdale, NY, USA), and formic acid was purchased from Merck (Darmstadt, Germany). Water was purified by deionization and filtration through a 0.22 μm membrane (Millipore, Billerica, MA, USA).
PTP1B inhibition assaying of the defatted extract, fraction F1 (from preparative HPLC: see Section 3.5) and microfractions (obtained as described below in Section 3.4) were performed according to the microplate-based method previously described. In brief, all solutions were prepared in a buffer of 50 mM Tris and 50 mM Bis-Tris containing 100 mM NaCL and adjusted to pH 7. […] The microplate was incubated for 10 min at 25 °C, and the reaction was started by addition of 0.001 μg/μL PTP1B stock solution (50 μL) in phosphate buffer (to give a final concentration of 0.05 µg PTP1B per well). […] For each microplate, blank samples (negative controls) containing buffer, enzyme, EDTA, DTT, and pNPP were measured in triplicate, and for the dilution series, RK682 was included as a reference inhibitory compound (i.e., positive control). The percentage inhibition of PTP1B was calculated according to the following equation: % inhibition=(1−SLOPEsample/SLOPEblank)×100
as §1, with “slope.” for “slope. Results are reported as IC50 values ± standard error.”

PTP1B = system: PTP1B; parameters: method as in PMID 23704520; conditions: read-out: previously reported IC50-value (PTP1B); cited from earlier work

Compound | PTP1B inhibitory activity in high-resolution inhibition profile of crude extract (recombinant human PTP1B [1]) | IC50 (recombinant human PTP1B [2]) [nM] | IC50 (PTP1B) [nM]
O=C(/C=C/c1ccc(O)c(O)c1)O[C@@H]1O[C@H](COC(=O)c2cc(O)c(O)c(O)c2)[C@@H](OC(=O)c2cc(O)c(O)c(O)c2)[C@H](O)[C@H]1O [Compound 2, 1-O-(E)-caffeoyl-4,6-di-O-galloyl-β-D-glucopyranose] | PTP1B inhibitors |  | 
C[C@@H]1O[C@@H](Oc2c(-c3ccc(O)c(O)c3)oc3cc(O)cc(O)c3c2=O)[C@H](OC(=O)c2cc(O)c(O)c(O)c2)[C@H](O)[C@H]1O [Compound 5, quercetin 3-O-(2″-galloyl)-α-L-rhamnopyranoside] | PTP1B inhibitors |  | 
O=c1c(O[C@@H]2OC[C@H](O)[C@H](O)[C@H]2O)c(-c2ccc(O)cc2)oc2cc(O)cc(O)c12 [Compound 8, kaempferol 3-O-α-L-arabinopyranoside] | PTP1B inhibitors |  | 
CC1(C)CC[C@]2(C(=O)O)CC[C@]3(C)C(=CC[C@@H]4[C@@]5(C)CC[C@@H](O)C(C)(C)[C@@H]5[C@H](O)C[C@]43C)[C@@H]2C1 [Compound 14, 3-epi-sumaresinolic acid] |  | 2870 ± 400 | 
COc1c(O)cc(-c2oc3cc(O)cc(O)c3c(=O)c2O[C@@H]2O[C@@H](C)[C@H](O)[C@@H](O)[C@H]2O)cc1O [Compound 6, mearnsetin 3-O-α-L-rhamnopyranoside] | PTP1B inhibitors |  | 
C[C@@H]1O[C@@H](Oc2c(-c3cc(O)c(O)c(O)c3)oc3cc(O)cc(O)c3c2=O)[C@H](O)[C@H](O)[C@H]1O [Compound 3, myricetin 3-O-α-L-rhamnopyranoside] | PTP1B inhibitors |  | 
CC1(C)CC[C@]2(C(=O)O)CC[C@]3(C)C(=CC[C@@H]4[C@@]5(C)CC[C@H](O)C(C)(C)[C@@H]5[C@H](O)C[C@]43C)[C@@H]2C1 [Compound 15, Sumaresinolic acid] |  | 1840 ± 300 | 
CC1C(C(=O)O)CCC2(C)CCC3(C)C(=CCC4C5(C)CC(O)C(OC(=O)C=Cc6ccc(O)cc6)C(C)(C)C5CCC43C)C12 (stereo not drawn) [Compound 18, 3-O-trans-p-coumaroyl-2α-hydroxydulcioic acid] |  | 1600 ± 500 | 
CC1(C)CC[C@]2(C(=O)O)CC[C@]3(C)C(=CC[C@@H]4[C@@]5(C)C[C@@H](O)[C@H](OC(=O)/C=C/c6ccc(O)cc6)C(C)(C)[C@@H]5CC[C@]43C)[C@@H]2C1 [Compound 17, 3-O-trans-p-coumaroyl-maslinic acid] |  | 1080 ± 300 | 
CC1(C)CC[C@]2(C(=O)O)CC[C@]3(C)C(=CC[C@@H]4[C@@]5(C)C[C@@H](O)[C@H](OC(=O)/C=C\c6ccc(O)cc6)C(C)(C)[C@@H]5CC[C@]43C)[C@@H]2C1 [Compound 16, 3-O-cis-p-coumaroyl-maslinic acid] |  | 460 ± 70 | 
CC1(C)CC[C@]2(C(=O)O)CC[C@]3(C)C(=CC[C@@H]4[C@@]5(C)C[C@@H](O)[C@H](O)C(C)(C)[C@@H]5CC[C@]43C)[C@@H]2C1 [Compound 13, Maslinic acid] |  | 3210 ± 800 | 5930
